In patent publication US12274703B2, “Compositions and methods of treatment for neurological disorders comprising a dementia” (Gliapharm SA, priority 2017, dated 2025):
Where two headings read alike, the source gives them in different places.

Experiments:
[1] = test system: astrocytes; test: Extracellular lactate quantification; assay type: cell-based, mouse; conditions: Mus musculus, Astrocyte; Appendix II; lactate secretion; read-out: EC50
Procedure: (§1) Primary cultures of cerebrocortical astrocytes were obtained from 1-2-day-old OF1 mouse pups (Charles River Laboratories). Briefly, cortices were isolated and minced in small pieces under a dissecting microscope. The cells were incubated for 30 min at 37° C. in a solution containing 20 U/ml of papain enzyme (Worthington Biochemical), L-cysteine 1 mM (Sigma), and 10 kU/ml DNase I (Worthington Biochemical) for an enzymatic dissociation. Papain activity was stopped by the addition of fetal calf serum (FCS) to the solution, and a single-cell suspension was then obtained by mechanical dissociation, which consisted in cells trituration in a DMEM (D7777, Sigma-Aldrich) medium (supplemented with 44 mm NaHCO3, and 10 ml/L antibiotic/antimycotic solution) containing 10% FCS. The cells were seeded at an average density of 6×10^4 cells/cm^2 in poly-D-lysine-coated 96, 12 or 6-well culture plates, depending on their use, and incubated at 37° C. in a humidified atmosphere containing 5% CO2/95% air. Culture medium was renewed twice per week. Cells were stimulated and harvested between DIV14 and DIV17, when confluence and cell growth were optimal.
Secretion of L-lactate was determined in the extracellular medium of 96-well plated astrocytes after 90 min stimulation (at 37° C., in 5% CO2/95% air conditions) with the drug of interest. The stimulation medium was composed of D5030 medium (completed with D-glucose 5 mM and 44 mM sodium bicarbonate) for 90 min in concentrations ranging from 0 to 100 μM.
Briefly, 200 μl of a Glycine (Sigma)-Semicarbazide (Acros) 0.2M pH 10 buffer containing 3 mM NAD (Roche) and LDH 14 U/ml (Roche) was added to each well of a 96-well plate containing 30 μl aliquots complemented with 20 μl fresh complete D5030 medium. Samples were incubated at 37° C. for 1 h. After samples cooled down at room temperature, the fluorescence intensity (340 nm excitation/450 nm emission) that represents the amount of NADH produced was measured, and lactate concentration values were determined from a standard curve of L-lactate.
Statistical analysis consisted in ANOVA followed by Fisher LSD post-hoc test for pair-wise comparisons.
Levels of lactate secreted by astrocytes were measured in the extracellular medium at 90 min after stimulation with hits (molecules) from the CDC54K library.

[2] = test system: primary astrocytes; test: High throughput screening for lactate secretion: acidification of extracellular medium (SNARF5); assay type: cell-based, mouse; conditions: Mus musculus, Astrocyte, 1.5 h, 10 uM, 90 min
Procedure: as §1
Secretion of lactate in a high-throughput screening (HTS) fashion was measured indirectly through the acidification of extracellular medium. To this end, primary astrocytes grown in 96-well plates for 17 days were stimulated with the compounds as listed herein.
After washing the cells twice with stimulation medium (DMEM (D5030, Sigma), 3 mM NaHCO3 and 5 mM Glucose) at 37° C., cells were stimulated with the compounds at a final concentration of 10 uM (1% DMSO final) in 50 ul per well of stimulation medium supplemented with 10 uM of the extracellular pH sensor SNARF-5F %-(AND-6)-CAR (Life Technologies Corporation). Each compound was tested in two different plates for duplicates.
After 90 min stimulation, fluorescence was read at exc. (excitation) 480 nm/emm. (emission) 580 nm and at exc 480 nm/emm. 630 nm. The ratio of fluorescence between 630 nm and 580 emission values, which represents extracellular pH, was calculated.
In each plate, 8 wells were used for negative controls (DMSO) and 8 wells were used for positive controls (CCCP 2 uM in DMSO). Z prime values were calculated for each of the plates tested and values <0 were discarded.
The average and SD of compounds' values tested in duplicates were calculated, and compound was noted as HIT when the difference between compound's average and negative control's average was greater than three times the sum of compound's SD and negative controls' SD. Only scores greater than 40% were considered as lead hits for the CDC54K library; for the remaining libraries, all hits were considered. Scores are calculated as the % of activity compared to the positive control in each plate (which is 100%).
Primary screening hits were cherry picked on new plates and confirmed for SNARF5 effect, after having discarded those compounds that are fluorescent (exc. 480 nm/emm. 580 nm or 630 nm) before stimulation. Extracellular medium was next analyzed for extracellular lactate quantification for secondary screening.
Identification of lactate-enhancing drugs with high throughput screening (HTS) experiments on astrocytes primary cultures using extracellular pH dye (SNARF5F 5-(and 6)-carboxylic acid) for 90 min. The procedure is described in Material and Methods (2. Cell culture, 2.1. HTS for lactate secretion and 2.2. Extracellular lactate quantification).
The procedure was performed as follows: • Primary screening: acidification of the extracellular medium • Primary screening confirmation: acidification of the extracellular medium, removal of compounds with fluorescent activity at exc. 480 nm/emm. 580 nm or 630 nm. • Secondary screening: dosage of extracellular lactate

[3] = Appendix I, primary screening, relative to positive control, read-out: Score

| SMILES | Emax at 10 µM [2, 3] | also measured |
| --- | --- | --- |
| CCc1cc2c(NC3CCCC3)ncnc2s1 [887-0183] | – | EC50 [1]: 3.94 µM |
| Cc1noc2ncnc(NC(C)CCc3ccccc3)c12 (centres unmarked) [E944-0182] | – | EC50 [1]: 3.99 µM |
| COc1ccc(S(=O)(=O)Nc2ccc(N3CCCCS3(=O)=O)cc2)cc1C [F2794-0128] | – | EC50 [1]: 9.85 µM |
| Cc1cccc(NS(=O)(=O)c2ccc(F)c(Cl)c2)c1 [F3394-1364] | – | EC50 [1]: 5.87 µM |
| FC(F)(F)c1cccc(CNc2ncnc3[nH]ncc23)c1 [F5285-0069] | – | EC50 [1]: 6.29 µM |
| CCc1ccc(S(=O)(=O)Nc2cc3c(cc2C)n(C)c(=O)n3C)cc1 [G433-0293] | – | EC50 [1]: 4.48 µM |
| COc1ccc(NS(=O)(=O)c2ccc(N3CCCCS3(=O)=O)cc2)cc1 [G508-0015] | – | EC50 [1]: 4.83 µM |
| CCc1cccc(NS(=O)(=O)c2ccc3c(c2)CCCN3C(C)=O)c1 [G855-0143] | – | EC50 [1]: 4.72 µM |
| CC(=O)N1CCCc2cc(S(=O)(=O)Nc3ccc(OC(F)(F)F)cc3)ccc21 [G855-0183] | – | EC50 [1]: 6 µM |
| CCNc1cc(C)nc(Nc2ccc(NC(=O)Cc3ccccc3)cc2)n1 [G869-0064] | – | EC50 [1]: 4.26 µM |
| CCNc1cc(C)nc(Nc2ccc(NC(=O)c3cccs3)cc2)n1 [G869-0071] | – | EC50 [1]: 4.9 µM |
| COc1ccc(CCNc2ncnc3c2cnn3C)cc1 [K405-2595] | – | EC50 [1]: 3.51 µM |
| CCOc1ccc(-c2csc3c(=O)n(Cc4ccncc4)cnc23)cc1OCC [L115-0403] | – | EC50 [1]: 3.28 µM |
| Cc1cc(/C=C/c2ccc3cc(N(C)C)ccc3[n+]2C)c(C)n1-c1ccccc1 [Pyrvinium pamoate] | – | Emax at 10 µM ([2]; Prestwick hits, activity relative to positive control CCCP 2 uM, read-out: Score): 99.1%; Emax at 10 µM ([2]; Prestwick hits, relative to positive control CCCP 2 uM, read-out: HTS Score (lactate)): 99.1% |
| O=C(c1ccco1)N1CCCn2nc(-c3ccc(C(F)(F)F)cc3)cc2C1 [T200-0370] | 56.2% | – |
| CCOc1ccc(-c2cc3n(n2)CCCN(C(=O)c2cccnc2)C3)cc1 [T200-0707] | 16.7% | – |
| COc1cccc(-c2cc3n(n2)CCCN(Cc2ccncc2)C3)c1 [T202-0973] | 34.1% | – |
| O=C(C[n+]1cc(-c2ccc(Br)cc2)n2c1CCCCC2)c1ccccc1 [T0500-4648] | 109% | – |
| O=C(C[n+]1cc(-c2ccccc2)n2c1CCC2)c1ccc(Br)cc1 [T0502-5560] | 102% | – |
| OC1(c2ccccc2)C[N+](c2ccccc2)=C2SCCCN21 (centres unmarked) [T0507-8442] | 26.8% | – |
| Fc1ccc(Nc2nc(N3CCOCC3)c3ccccc3n2)cc1 [T0508-5193] | 19.5% | – |
| O=S(=O)(Nc1ccc(O)c(Cl)c1)c1ccc2ccccc2c1 [T0517-8939] | 76.8% | – |

| SMILES | Emax at 10 µM [2, 3] | also measured |
| --- | --- | --- |
| CC(C)OCCCNc1ncnc2c1CCC2 [T636-0027] | 53.6% | – |
| Cc1ccc(CNc2ncnc3c2CCC3)o1 [T636-0054] | 55.3% | – |
| c1cncc(CCNc2ncnc3c2CCC3)c1 [T636-0085] | 28.4% | – |
| COc1cccc(CNc2ncnc3c2CCC3)c1 [T636-0134] | 75.1% | – |
| CN1CCC(OCCCNc2ncnc3c2CCC3)CC1 [T636-0181] | 22.8% | – |
| c1coc(CNc2nc(-c3ccncc3)nc3c2CCC3)c1 [T636-0973] | 0% | – |
| Cc1ccsc1C(=O)NC1CCN(c2ncnc3c2CCC3)C1 (centres unmarked) [T636-1114] | 72.5% | – |
| O=C(NCc1ccccc1)NC1CCN(c2ncnc3c2CCC3)C1 (centres unmarked) [T636-1210] | 48.9% | – |
| O=C(NCc1cccc(F)c1)NC1CCN(c2ncnc3c2CCC3)C1 (centres unmarked) [T636-1243] | 45.5% | – |
| O=S(=O)(NC1CCN(c2ncnc3c2CCC3)C1)c1ccccc1 (centres unmarked) [T636-1250] | 96.4% | – |
| O=C(c1cccc(F)c1)N1CCC(Nc2ncnc3c2CCC3)CC1 [T636-1601] | 0% | – |
| c1ccc(CN2CCC(Nc3ncnc4c3CCC4)CC2)nc1 [T636-1715] | 0% | – |
| Cc1ccc(CN2CCN(c3ncnc4c3CCC4)CC2)o1 [T636-1937] | 74% | – |
| COc1ccc(CN2CCN(c3ncnc4c3CCC4)CC2)cc1OC [T636-2007] | 102% | – |
| Cc1ccc(C(=O)N2CCCC(Nc3ncnc4c3CCC4)C2)cn1 (centres unmarked) [T636-2144] | 0% | – |
| O=C(Cc1cccc(F)c1)N1CCC(Nc2ncnc3c2CCC3)C1 (centres unmarked) [T636-2360] | 44% | – |
| O=C(c1ccc(Cl)s1)N1CCC(Nc2ncnc3c2CCC3)C1 (centres unmarked) [T636-2391] | 93.2% | – |
| Cn1nccc1C(=O)N1CCC(Nc2ncnc3c2CCC3)C1 (centres unmarked) [T636-2425] | 22% | – |
| O=S(=O)(Nc1ccc(F)c(Cl)c1)c1ccc2ccccc2c1 [T5231424] | 67.3% | – |
| COc1ccccc1S(=O)(=O)Nc1ccc2nc(C)sc2c1 [T5246417] | 24.1% | – |
| FC(F)(F)c1cccc(CNc2ncnc3sccc23)c1 [T5346988] | 99.6% | – |
| Clc1ccc(Nc2ncnc3sccc23)cc1 [T5393195] | 36.9% | – |

| SMILES | Emax at 10 µM [2, 3] | also measured |
| --- | --- | --- |
| O=S(=O)(Nc1ccc2[nH]ncc2c1)c1ccc(Cl)cc1F [T5436375] | 0% | – |
| COc1ccc(C2SCCN2S(=O)(=O)c2cccc(C)c2)cc1OC (centres unmarked) [T5463658] | 27.2% | – |
| Cc1ccc(S(=O)(=O)N2CCSC2c2cccc([N+](=O)[O-])c2)c(C)c1 (centres unmarked) [T5463709] | 24.4% | – |
| Cc1ccc(S(=O)(=O)N2CCSC2c2ccc([N+](=O)[O-])cc2)c(C)c1 (centres unmarked) [T5464782] | 27.7% | – |
| Cc1nc2ccc(NS(=O)(=O)c3ccccc3F)cc2s1 [T5511047] | 67% | – |
| Cn1nc(CC(=O)Nc2cccc(C(=O)NC3CC3)c2)c2ccccc2c1=O [T5543110] | 39.1% | – |
| Cc1cc(S(=O)(=O)NCc2ccncc2)c(Cl)cc1Cl [T5581430] | 47.2% | – |
| Cc1nc(-c2cccc(NS(=O)(=O)c3ccc(N4CCCC4=O)cc3)c2)cs1 [T5599698] | 85.6% | – |
| O=C(NC1CC1)c1cccc(NS(=O)(=O)c2ccc(N3CCCC3=O)cc2)c1 [T5618591] | 41.6% | – |
| CC(=O)c1cccc(NC(=O)C(C)Sc2ncnc3ccsc23)c1 (centres unmarked) [T5627721] | 72.4% | – |
| CC1c2ccsc2CCN1c1ncnc2sccc12 (centres unmarked) [T5630309] | 72.2% | – |
| O=S(=O)(Nc1ccc2[nH]ncc2c1)c1ccc(C(F)(F)F)cc1 [T5653029] | 36.2% | – |
| c1csc(C(Nc2ncnc3sccc23)C2CC2)c1 (centres unmarked) [T5713637] | 114% | – |
| O=C(Cc1n[nH]c(=O)c2ccccc12)Nc1cccc(Br)c1 [T5717474] | 21.7% | – |
| c1ccc(C(Nc2ncnc3sccc23)C2CC2)cc1 (centres unmarked) [T6016487] | 126% | – |
| CC(=O)N1CCCc2cc(S(=O)(=O)NC(c3ccccc3)C(C)C)ccc21 (centres unmarked) [T6067366] | 0% | – |
| CC(=O)N1CCCc2cc(S(=O)(=O)NCc3cccc(C(F)(F)F)c3)ccc21 [T6099519] | 27.6% | – |
| Cc1ccc(F)cc1NC(=O)Cc1nn(C)c(=O)c2ccccc12 [T6302989] | 40.5% | – |
| c1ccc2c(c1)CN(c1ncnc3sccc13)CCN2 [T6768300] | 34.4% | – |
| CN(C)Cc1cccc(CNc2ncnc3sccc23)c1 [T6783542] | 85.7% | – |
